In PubChem BioAssay (NCI):
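Step 1: Grow cells in 96-well plates. Step 2: Expose to compound for 48 hours at 5 concentrations. Step 3: Interpolate endpoints linearly; if unreached, use highest concentration. GI50 marks 50% less growth. TGI: concentration producing complete growth inhibition.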

What was measured:
Assay in all cases: growth of human tumour cells (NCI), 48 h
SW-620 colon = test system: SW-620 colon
UACC-257 melanoma = test system: UACC-257 melanoma
TK-10 renal = test system: TK-10 renal
SNB-19 CNS = test system: SNB-19 CNS
HL-60(TB) leukemia = test system: HL-60(TB) leukemia
NCI/ADR-RES ovarian = test system: NCI/ADR-RES ovarian
OVCAR-4 ovarian = test system: OVCAR-4 ovarian
HT29 colon = test system: HT29 colon
HCC-2998 colon = test system: HCC-2998 colon
CAKI-1 renal = test system: CAKI-1 renal

| Compound | GI50 (SW-620 colon) | TGI (SW-620 colon) | GI50 (UACC-257 melanoma) | TGI (UACC-257 melanoma) | GI50 (TK-10 renal) | TGI (TK-10 renal) | GI50 (SNB-19 CNS) | TGI (SNB-19 CNS) | GI50 (HL-60(TB) leukemia) | TGI (HL-60(TB) leukemia) | GI50 (NCI/ADR-RES ovarian) | TGI (NCI/ADR-RES ovarian) | GI50 (OVCAR-4 ovarian) | TGI (OVCAR-4 ovarian) | GI50 (HT29 colon) | TGI (HT29 colon) | GI50 (HCC-2998 colon) | TGI (HCC-2998 colon) | GI50 (CAKI-1 renal) | TGI (CAKI-1 renal) |
| --- | --- | --- | --- | --- | --- | --- | --- | --- | --- | --- | --- | --- | --- | --- | --- | --- | --- | --- | --- | --- |
| COc1ccc(-c2nc(-c3nc4cc(Cl)c(F)cc4[nH]3)c3ccccn23)cc1 | 5.38 µM | > 100 µM | 3.15 µM | 13.2 µM | 5.25 µM | > 100 µM | 8.34 µM | > 100 µM | 4.97 µM | > 100 µM | 5.5 µM | > 100 µM | 7.93 µM | > 100 µM | 4.26 µM | > 100 µM | 4.03 µM | > 100 µM | 5.35 µM | > 100 µM |
| CCCN(CCC)c1ccc(C=O)c(Cl)c1 | 20.9 µM | > 100 µM | 0.273 µM | 0.979 µM | 0.262 µM | 1.17 µM | 25.8 µM | > 100 µM | 27.8 µM | 76.1 µM | 29 µM | > 100 µM | 0.78 µM | 14.2 µM | 18.4 µM | 50.2 µM | 19.4 µM | > 100 µM | 15.1 µM | > 66.9 µM |
| Cn1cc(-c2cc(-c3cn(C)c4ccc(Cl)cc34)[nH]n2)c2cc(Cl)ccc21 | 3.52 µM | 14.6 µM | 4.26 µM | 34.2 µM | 5.16 µM | 23.7 µM | 4.09 µM | 20.1 µM | 4.45 µM | 18.1 µM | 2.25 µM | 6.59 µM | 5.82 µM | 28.4 µM | 3.57 µM | 18.1 µM | 1.71 µM | 3.84 µM | 1.7 µM | 6.05 µM |
| Nc1c(C(=O)c2cccc(C#CCN3CCCCC3)c2)cnn1-c1ccc(F)cc1 | > 25 µM | > 25 µM | > 24.1 µM | > 25 µM | > 25 µM | > 25 µM | > 25 µM | > 25 µM | 15.9 µM | > 25 µM | > 19.9 µM | > 25 µM | > 22.6 µM | > 25 µM | > 17.7 µM | > 25 µM | > 25 µM | > 25 µM | > 25 µM | > 25 µM |
| COc1ccc(C(=O)c2sc3nc(-c4ccccc4OC)ccc3c2N)cc1OC | > 100 µM | > 100 µM | 6.05 µM | > 100 µM | 4.87 µM | 33.4 µM | 22.8 µM | > 100 µM | 4.07 µM | > 100 µM | 5.05 µM | > 100 µM | 7.49 µM | > 100 µM | 4.9 µM | > 100 µM | 9.71 µM | > 100 µM | 27.6 µM | > 100 µM |
| CCCCCCCCCc1ccc(OCCOCCOCCOCCOCCOCCOCCOCCOCCO)cc1 | 1.19 µM | 5.55 µM | 0.0567 µM | 0.812 µM | 0.745 µM | 1.93 µM | 0.617 µM | 2.73 µM | 0.31 µM | 1.37 µM | 0.268 µM | 3.94 µM | 0.131 µM | 5.04 µM | 0.685 µM | 1.98 µM | 0.75 µM | 1.85 µM | 0.478 µM | 5.75 µM |
| COc1ccc2c(c1)C(=O)/C(=C/c1cccc(OCC(=O)Nc3nc(C)c(C)s3)c1)O2 | 0.499 µM | 1.86 µM | 12.8 µM | 26.3 µM | 1.03 µM | 2.8 µM | 12.2 µM | 25.7 µM | 0.0444 µM | 0.175 µM | 3.76 µM | 29.6 µM | 2.03 µM | 6.91 µM | 0.0302 µM | 0.111 µM | 1.53 µM | 3.54 µM | 0.271 µM | 1.16 µM |
| CC(=O)c1ccc2c(c1)N(CCCN1CCN(CCO)CC1)c1ccccc1S2 | 1.82 µM | 3.61 µM | 1.85 µM | 3.51 µM | 1.69 µM | 3.6 µM | 2.44 µM | 6.97 µM | 2.12 µM | 4.83 µM | 3.05 µM | 12.9 µM | 3.98 µM | 14.7 µM | 1.7 µM | 3.75 µM | 1.71 µM | 3.2 µM | 1.73 µM | 4.22 µM |
| CCOC(=O)c1ccc(NC(=O)NC2=NCCS2)cc1 | 22.9 µM | > 100 µM | > 100 µM | > 100 µM | > 100 µM | > 100 µM | 2.86 µM | > 100 µM | 0.503 µM | > 100 µM | 0.505 µM | > 49.6 µM | 56.1 µM | > 100 µM | > 93.5 µM | > 100 µM | 3.91 µM | > 76.7 µM | 1.39 µM | > 100 µM |
| COc1cc(C2=NN(C(C)=O)C(c3cc(OC)c(OC)c(OC)c3)C2)ccc1O (centres undefined) | 0.296 µM | > 100 µM | > 93.6 µM | > 100 µM | 0.723 µM | > 100 µM | 0.491 µM | > 100 µM | 0.182 µM | 0.514 µM | 0.283 µM | > 100 µM | 0.532 µM | > 100 µM | 0.358 µM | > 100 µM | 0.539 µM | > 100 µM | 0.317 µM | > 21.5 µM |
| Clc1ccc(/C=C/c2ccc3ccccc3n2)cc1 | 0.553 µM | > 100 µM | 1.83 µM | > 100 µM | 5.24 µM | > 100 µM | 1.56 µM | > 100 µM | 0.268 µM | 0.828 µM | 6.27 µM | 29.4 µM | > 69.8 µM | > 100 µM | 2.62 µM | 8.8 µM | 0.968 µM | 8.41 µM | 2.29 µM | > 57.9 µM |
| COc1cccc(CNc2ncnc3c2ncn3C2OC(CO)C(O)C2O)c1O (centres undefined) | 0.159 µM | > 100 µM | 1.91 µM | > 100 µM | 0.058 µM | 1.38 µM | 0.48 µM | > 100 µM | 0.0303 µM | 0.224 µM | 0.168 µM | > 100 µM | 0.105 µM | > 100 µM | 0.9 µM | > 100 µM | 0.391 µM | > 38.2 µM | 0.0667 µM | – |
| c1ccc(-c2nc3n(c2-c2ccc4c(c2)OCO4)CCC3)nc1 | 8.47 µM | > 25 µM | 7.45 µM | 21.9 µM | 1.41 µM | > 23.6 µM | 8.74 µM | > 25 µM | 2.56 µM | 10.7 µM | 0.573 µM | 9.59 µM | 2.41 µM | 15.8 µM | 7.79 µM | > 25 µM | 10.4 µM | > 25 µM | 0.62 µM | > 25 µM |
